Starred links: 1 amine or outer side, 2 acyl side, 3 side chain; linkers in the order of their positions; H or OH if unused. Non-standard residues stand in square brackets, D forms with d. Residues, ends and D or L forms follow the SMILES beside them. Groups on a side chain read outwards from the residue. *: point of attachment. γGlu = O=C(O)[C@H](CCC(=O)[*:2])N[*:1]; Palmitoyl = CCCCCCCCCCCCCCCC(=O)*; AEEA = NCCOCCOCC(=O)O; Aib = CC(C)(N)C(=O)O

Results on 6 compounds are retold here after patent US12679878B2, “CRF2 receptor agonists and their use in therapy” (SANOFI, priority 2020, dated 2026).

The target in this assay is T1, human CRF2α receptor (Homo sapiens, UniProt Q13324).
T1 construct: expressed in transfected cells; host or cells: TeloHEAC
T1 sequence (Q13324 1-411): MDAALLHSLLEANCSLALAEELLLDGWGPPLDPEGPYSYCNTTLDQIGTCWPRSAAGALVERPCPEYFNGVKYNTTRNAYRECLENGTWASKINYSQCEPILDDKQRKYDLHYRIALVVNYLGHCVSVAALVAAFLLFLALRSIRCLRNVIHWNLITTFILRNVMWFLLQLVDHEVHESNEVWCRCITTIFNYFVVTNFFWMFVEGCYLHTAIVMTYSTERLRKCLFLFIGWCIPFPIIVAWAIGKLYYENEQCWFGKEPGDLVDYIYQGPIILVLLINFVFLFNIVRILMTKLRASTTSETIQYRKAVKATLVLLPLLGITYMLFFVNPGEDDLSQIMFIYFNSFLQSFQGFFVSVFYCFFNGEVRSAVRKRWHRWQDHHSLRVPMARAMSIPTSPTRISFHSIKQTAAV
Description: cAMP agonism at human CRF2α receptor in TeloHEAC cells, FA modified peptides (Example 19.9). Format: cell-based. The settings on record: 0% HSA, relative to urocortin 2. As to the method: Agonism of compounds for human corticotropin-releasing factor 2α (CRF2α receptor) was determined by a functional assay measuring cAMP modulation upon treatment of TeloHEAC cells stably expressing human CRF2α receptor.
Compounds were dissolved at 0.5 mM in 100% DMSO and serially diluted (1:2) in 100% DMSO for 16 dilutions. 20 nL of each dilution was then transferred to 384-well assay plate using an acoustic droplet ejection instrument. 5 μL of compound buffer (1×HBSS; 20 mM HEPES, 2 mM IBMX, 0% or 0.2% HSA) were then added to each well.
Prior to use, frozen cells were thawed quickly at 37° C. and washed (5 min at 900 rpm) with 20 mL cell buffer (1×HBSS; 20 mM HEPES). Cells were resuspended in cell buffer and adjusted to a cell density of 800.000 cells/ml.
5 μL cells (final dell density: 4000 cells/well) were dispensed in the compound-containing 384-well assay plate and incubated for 30 minutes 37° C.
The CAMP level in treated cells was determined using the Cisbio 62AM4PEC kit according to manufacturer's instruction. Finally, plates were incubated for 1 h at room temperature before measuring the fluorescence ratio between 665/620 nm.
The percent activity value (E %) was calculated by setting 100 nM of urocortin 2 (UCN2) as 100%. The in vitro potency of the compounds was quantified by determining the concentrations that caused 50% activation of maximal response (EC50) relative to urocortin 2.

As for `CCCCCCCCCCCCCCCC(=O)N[C@@H](CCC(=O)NCCOCCOCC(=O)NCCOCCOCC(=O)NCCCC[C@H](NC(=O)[C@H](CC(C)C)NC(=O)[C@H](CCCCN)NC(=O)[C@@H](NC(=O)[C@@H]1CCCN1C(=O)[C@H](NC(=O)[C@H](CC(=O)O)NC(=O)[C@H](CC(C)C)NC(=O)[C@H](CO)NC(=O)[C@H](CC(C)C)NC(=O)[C@@H](NC(=O)[C@@H](N)[C@@H](C)CC)C(C)C)C(C)C)[C@@H](C)CC)C(=O)N[C@@H](CCC(N)=O)C(=O)N[C@H](C(=O)N[C@@H](CC(C)C)C(=O)N[C@@H](CC(C)C)C(=O)N[C@@H](CCCCN)C(=O)N[C@@H](CCC(N)=O)C(=O)N[C@@H](CCC(=O)O)C(=O)N[C@@H](CCCNC(=N)N)C(=O)N[C@@H](CCC(N)=O)C(=O)N[C@@H](CCCCN)C(=O)NC(C)(C)C(=O)N[C@@H](CCC(N)=O)C(=O)N[C@@H](CCCNC(=N)N)C(=O)N[C@@H](CCC(=O)O)C(=O)N[C@@H](CCC(N)=O)C(=O)N[C@@H](C)C(=O)N[C@@H](CCC(=O)O)C(=O)N[C@@H](CCCCN)C(=O)N[C@@H](CC(N)=O)C(=O)N[C@@H](CCCCN)C(=O)N[C@@H](CCC(N)=O)C(=O)N[C@H](C(=O)N[C@@H](CC(C)C)C(=O)N[C@@H](C)C(=O)N[C@@H](CCC(N)=O)C(=O)N[C@H](C(N)=O)C(C)C)[C@@H](C)CC)[C@@H](C)CC)C(=O)O` [compound 205] (H-IVLSLD[dV]PIKLK([AEEA-AEEA-γGlu-Palmitoyl])QILLKQERQK[Aib]QREQAEKNKQILAQV-NH2; N-terminus assumed), it took 0.32 nM to reach a half-maximal effect (EC50). In other words, the sub-nanomolar range. On to `CCCCCCCCCCCCCCCC(=O)N[C@@H](CCC(=O)N[C@@H](CCC(=O)NCCOCCOCC(=O)NCCOCCOCC(=O)NCCCC[C@H](NC(=O)[C@H](CC(C)C)NC(=O)[C@H](CCCCN)NC(=O)[C@@H](NC(=O)[C@@H]1CCCN1C(=O)[C@H](NC(=O)[C@H](CC(=O)O)NC(=O)[C@H](CC(C)C)NC(=O)[C@H](CO)NC(=O)[C@H](CC(C)C)NC(=O)[C@@H](NC(=O)[C@@H](N)[C@@H](C)CC)C(C)C)C(C)C)[C@@H](C)CC)C(=O)N[C@@H](CCC(N)=O)C(=O)N[C@H](C(=O)N[C@@H](CC(C)C)C(=O)N[C@@H](CC(C)C)C(=O)N[C@@H](CCCCN)C(=O)N[C@@H](CCC(N)=O)C(=O)N[C@@H](CCC(=O)O)C(=O)N[C@@H](CCCNC(=N)N)C(=O)N[C@@H](CCC(N)=O)C(=O)N[C@@H](CCCCN)C(=O)NC(C)(C)C(=O)N[C@@H](CCC(N)=O)C(=O)N[C@@H](CCCNC(=N)N)C(=O)N[C@@H](CCC(=O)O)C(=O)N[C@@H](CCC(N)=O)C(=O)N[C@@H](C)C(=O)N[C@@H](CCC(=O)O)C(=O)N[C@@H](CCCCN)C(=O)N[C@@H](CC(N)=O)C(=O)N[C@@H](CCCCN)C(=O)N[C@@H](CCC(N)=O)C(=O)N[C@H](C(=O)N[C@@H](CC(C)C)C(=O)N[C@@H](C)C(=O)N[C@@H](CCC(N)=O)C(=O)N[C@H](C(N)=O)C(C)C)[C@@H](C)CC)[C@@H](C)CC)C(=O)O)C(=O)O` [compound 206] (H-IVLSLD[dV]PIKLK([AEEA-AEEA-γGlu-γGlu-Palmitoyl])QILLKQERQK[Aib]QREQAEKNKQILAQV-NH2; N-terminus assumed), for which the EC50 (commonly the concentration that produces a half-maximal response) was found to be 0.09 nM. Compared with the last compound, the EC50 is about 3.6-fold lower. Regarding `CCCCCCCCCCCCCCCC(=O)N[C@@H](CCC(=O)NCCOCCOCC(=O)NCCOCCOCC(=O)NCCCC[C@H](NC(=O)[C@H](CC(C)C)NC(=O)[C@H](CCCCN)NC(=O)[C@@H](NC(=O)[C@@H]1CCCN1C(=O)[C@H](NC(=O)[C@H](CC(=O)O)NC(=O)[C@H](CC(C)C)NC(=O)[C@H](CO)NC(=O)[C@H](CC(C)C)NC(=O)[C@@H](NC(=O)[C@@H](N)[C@@H](C)CC)C(C)C)C(C)C)[C@@H](C)CC)C(=O)N[C@@H](CCC(N)=O)C(=O)N[C@H](C(=O)N[C@@H](CC(C)C)C(=O)N[C@@H](CC(C)C)C(=O)N[C@@H](CCCCN)C(=O)N[C@@H](CCC(N)=O)C(=O)N[C@@H](CCC(=O)O)C(=O)N[C@@H](CCCNC(=N)N)C(=O)N[C@@H](CCC(N)=O)C(=O)N[C@@H](CCCCN)C(=O)N[C@@H](CCCCN)C(=O)NC(C)(C)C(=O)N[C@@H](CCCNC(=N)N)C(=O)N[C@@H](CCC(N)=O)C(=O)N[C@@H](CCCCN)C(=O)N[C@@H](C)C(=O)N[C@@H](CCC(=O)O)C(=O)N[C@@H](CCCCN)C(=O)N[C@@H](CC(N)=O)C(=O)N[C@@H](CCCCN)C(=O)N[C@@H](CCC(N)=O)C(=O)N[C@H](C(=O)N[C@@H](CC(C)C)C(=O)N[C@@H](C)C(=O)N[C@@H](CCC(N)=O)C(=O)N[C@H](C(N)=O)C(C)C)[C@@H](C)CC)[C@@H](C)CC)C(=O)O` [compound 210] (H-IVLSLD[dV]PIKLK([AEEA-AEEA-γGlu-Palmitoyl])QILLKQERQKK[Aib]RQKAEKNKQILAQV-NH2), a half-maximal response (EC50) required 2.98 nM. For `CCCCCCCCCCCCCCCC(=O)N[C@@H](CCC(=O)N[C@@H](CCC(=O)NCCOCCOCC(=O)NCCOCCOCC(=O)NCCCC[C@H](NC(=O)[C@H](CC(C)C)NC(=O)[C@H](CCCCN)NC(=O)[C@@H](NC(=O)[C@@H]1CCCN1C(=O)[C@H](NC(=O)[C@H](CC(=O)O)NC(=O)[C@H](CC(C)C)NC(=O)[C@H](CO)NC(=O)[C@H](CC(C)C)NC(=O)[C@@H](NC(=O)[C@@H](N)[C@@H](C)CC)C(C)C)C(C)C)[C@@H](C)CC)C(=O)N[C@@H](CCC(N)=O)C(=O)N[C@H](C(=O)N[C@@H](CC(C)C)C(=O)N[C@@H](CC(C)C)C(=O)N[C@@H](CCCCN)C(=O)N[C@@H](CCC(N)=O)C(=O)N[C@@H](CCC(=O)O)C(=O)N[C@@H](CCCNC(=N)N)C(=O)N[C@@H](CCC(N)=O)C(=O)N[C@@H](CCCCN)C(=O)N[C@@H](CCCCN)C(=O)NC(C)(C)C(=O)N[C@@H](CCCNC(=N)N)C(=O)N[C@@H](CCC(N)=O)C(=O)N[C@@H](CCCCN)C(=O)N[C@@H](C)C(=O)N[C@@H](CCC(=O)O)C(=O)N[C@@H](CCCCN)C(=O)N[C@@H](CC(N)=O)C(=O)N[C@@H](CCCCN)C(=O)N[C@@H](CCC(N)=O)C(=O)N[C@H](C(=O)N[C@@H](CC(C)C)C(=O)N[C@@H](C)C(=O)N[C@@H](CCC(N)=O)C(=O)N[C@H](C(N)=O)C(C)C)[C@@H](C)CC)[C@@H](C)CC)C(=O)O)C(=O)O` [compound 211] (H-IVLSLD[dV]PIKLK([AEEA-AEEA-γGlu-γGlu-Palmitoyl])QILLKQERQKK[Aib]RQKAEKNKQILAQV-NH2) the value was 0.94 nM; for `CCCCCCCCCCCCCCCC(=O)N[C@@H](CCC(=O)NCCCC[C@H](NC(=O)[C@H](CC(C)C)NC(=O)[C@H](CCCCN)NC(=O)[C@@H](NC(=O)[C@@H]1CCCN1C(=O)[C@H](NC(=O)[C@H](CC(=O)O)NC(=O)[C@H](CC(C)C)NC(=O)[C@H](CO)NC(=O)[C@H](CC(C)C)NC(=O)[C@@H](NC(=O)[C@@H](N)[C@@H](C)CC)C(C)C)C(C)C)[C@@H](C)CC)C(=O)N[C@@H](CCC(N)=O)C(=O)N[C@H](C(=O)N[C@@H](CC(C)C)C(=O)N[C@@H](CC(C)C)C(=O)N[C@@H](CCCCN)C(=O)N[C@@H](CCC(N)=O)C(=O)N[C@@H](CCC(=O)O)C(=O)N[C@@H](CCCNC(=N)N)C(=O)N[C@@H](CCC(N)=O)C(=O)N[C@@H](CCCCN)C(=O)N[C@@H](CCCCN)C(=O)N[C@@H](CCC(N)=O)C(=O)N[C@@H](CCCNC(=N)N)C(=O)N[C@@H](CCC(=O)O)C(=O)N[C@@H](CCCCN)C(=O)N[C@@H](C)C(=O)N[C@@H](CCC(=O)O)C(=O)N[C@@H](CCCCN)C(=O)N[C@@H](CC(N)=O)C(=O)N[C@@H](CCCCN)C(=O)N[C@@H](CCC(N)=O)C(=O)N[C@H](C(=O)N[C@@H](CC(C)C)C(=O)N[C@@H](C)C(=O)N[C@@H](CCC(N)=O)C(=O)N[C@H](C(N)=O)C(C)C)[C@@H](C)CC)[C@@H](C)CC)C(=O)O` [compound 213] (H-IVLSLD[dV]PIKLK([γGlu-Palmitoyl])QILLKQERQKKQREKAEKNKQILAQV-NH2), 4.48 nM. For `CCCCCCCCCCCCCCCC(=O)N[C@@H](CCC(=O)NCCCC[C@H](NC(=O)[C@H](CC(C)C)NC(=O)CNC(=O)[C@@H](NC(=O)[C@@H]1CCCN1C(=O)[C@H](NC(=O)[C@H](CC(=O)O)NC(=O)[C@H](CC(C)C)NC(=O)[C@H](CO)NC(=O)[C@H](CC(C)C)NC(=O)[C@@H](NC(=O)[C@@H](N)[C@@H](C)CC)C(C)C)C(C)C)[C@@H](C)CC)C(=O)N[C@@H](CCC(N)=O)C(=O)N[C@H](C(=O)N[C@@H](CC(C)C)C(=O)N[C@@H](CC(C)C)C(=O)N[C@@H](CCCCN)C(=O)N[C@@H](CCC(N)=O)C(=O)N[C@@H](CCC(=O)O)C(=O)N[C@@H](CCCNC(=N)N)C(=O)N[C@@H](CCC(N)=O)C(=O)N[C@@H](CCCCN)C(=O)N[C@@H](CCCCN)C(=O)NC(C)(C)C(=O)N[C@@H](CCCNC(=N)N)C(=O)N[C@@H](CCC(=O)O)C(=O)N[C@@H](CCC(N)=O)C(=O)N[C@@H](C)C(=O)N[C@@H](CCC(=O)O)C(=O)N[C@H](C(=O)N[C@@H](CC(N)=O)C(=O)N[C@@H](CCCCN)C(=O)N[C@@H](CCC(N)=O)C(=O)N[C@H](C(=O)N[C@@H](CC(C)C)C(=O)N[C@@H](C)C(=O)N[C@@H](CCC(N)=O)C(=O)N[C@H](C(N)=O)C(C)C)[C@@H](C)CC)[C@@H](C)O)[C@@H](C)CC)C(=O)O` [compound 215] (H-IVLSLD[dV]PIGLK([γGlu-Palmitoyl])QILLKQERQKK[Aib]REQAETNKQILAQV-NH2; N-terminus assumed), the EC50 was 0.15 nM.
